Test results reported in US10111874B2, “Combination therapies for treatment of cancer” (Araxes Pharma LLC, priority 2014, dated 2018).

Target: T1, KRAS G12C 1-169, his-tagged protein, GDP-loaded (Homo sapiens, UniProt P01116, G12C)
T1 construct: KRAS G12C 1-169, his-tagged protein, GDP-loaded
Test: Biochemical assay: covalent binding to KRAS G12C analyzed by mass spectrometry; also: test concentration or dose not given here
Settings: compounds 1-47, measured at 24 h

T1 sequence (P01116 1-169 isoform P01116-2 G12C): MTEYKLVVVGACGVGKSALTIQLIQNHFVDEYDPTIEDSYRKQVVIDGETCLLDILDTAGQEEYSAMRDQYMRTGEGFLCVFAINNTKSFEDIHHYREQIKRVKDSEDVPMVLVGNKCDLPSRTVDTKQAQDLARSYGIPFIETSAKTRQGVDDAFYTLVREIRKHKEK

SMILES	Binding %
C=CC(=O)NC1CN(c2ncnc3cc(Cl)c(-c4ccccc4Cl)cc23)C1 [Compound I-29, N-(1-(7-chloro-6-(2-chlorophenyl)quinazolin-4-yl)azetidin-3-yl)acrylamide]	+ (+indicates binding activity from 5% to 25%)
C=CC(=O)N1CCN(c2ncnc3cc(Cl)c(-c4cc(Cl)ccc4O)cc23)CC1 [Compound I-10, 1-(4-(7-chloro-6-(5-chloro-2-hydroxyphenyl)quinazolin-4-yl)piperazin-1-yl)prop-2-en-1-one]	++ (++indicates binding activity greater than 25% and up to 50%)
C=CC(=O)N1CCC2(C1)CN(C(=O)CNc1cc(Cl)c(Cl)cc1O)C2 [Example 40, 1-(2-(2-(4,5-dichloro-2-hydroxyphenylamino)acetyl)-2,6-diazaspiro[3.4]octan-6-yl)prop-2-en-1-one]	+++ (+++indicates binding activity greater than 50% and up to 75%)

Same assay, conditions: compounds 48-246, measured at 2 h

SMILES	Binding %
C=CC(=O)N1CCN(c2ncnc3cc(-c4cc(Cl)ccc4F)c(Cl)cc23)CC1 [Compound I-115, 1-(4-(6-chloro-7-(5-chloro-2-fluorophenyl)quinazolin-4-yl)piperazin-1-yl)prop-2-en-1-one]	+++ (+++indicates binding activity greater than 50% and up to 75%)
C=CC(=O)N1CCN(c2ncnc3cc(-c4cc(O)c(F)cc4F)c(Cl)cc23)CC1 [Compound I-206, 1-(4-(6-chloro-7-(2,4-difluoro-5-hydroxyphenyl)quinazolin-4-yl)piperazin-1-yl)prop-2-en-1-one]	++++ (++++indicates binding activity greater than 75%)
C=CC(=O)N1CCN(c2cnnc3cc(-c4c(O)cccc4F)c(Cl)cc23)CC1 [Compound I-231, 1-(4-(6-chloro-7-(2-fluoro-6-hydroxyphenyl)ciinolin-4-yl)piperazin-1-yl)prop-2-en-1-one]	+++ (+++indicates binding activity greater than 50% and up to 75%)
C=CC(=O)N1CCN(c2ncnc3cc(-c4ccc(F)cc4F)c(C(F)(F)F)cc23)CC1 [Compound I-204, 1-(4-(7-(2,4-difluorophenyl)-6-(trifluoromethyl)quinazolin-4-yl)piperazin-1-yl)prop-2-en-1-one]	+++ (+++indicates binding activity greater than 50% and up to 75%)
C=CC(=O)N1CCN(c2ncnc3cc(-c4cccc5onc(N)c45)c(Cl)cc23)CC1 [Compound I-149, 1-(4-(7-(3-aminobenzo[d]isoxazol-4-yl)-6-chloroquinazolin-4-yl)piperazin-1-yl)prop-2-en-1-one]	+ (+indicates binding activity from 5% to 25%)
C=CC(=O)N1CCN(c2ncnc3cc(N4CCNCC4)c(Cl)cc23)CC1 [Compound I-80, 1-(4-(6-chloro-7-(piperazin-1-yl)quinazolin-4-yl)piperazin-1-yl)prop-2-en-1-one]	+ (+indicates binding activity from 5% to 25%)
C=CC(=O)N1CCN(C2=c3cc(Cl)c(-c4ccccc4F)cc3=NCN2C(N)=O)CC1 [Compound I-189, 4-(4-acryloylpiperazin-1-yl)-6-chloro-7-(2-fluorophenyl)quinazolin-3-carboxamide]	++ (++indicates binding activity greater than 25% and up to 50%)
C=CC(=O)N1CCN(c2ncnc3cc(-c4c(F)cccc4C#N)c(Cl)cc23)CC1 [Compound I-192, 2-(4-(4-acryloylpiperazin-1-yl)-6-chloroquinazolin-7-yl)-3-fluorobenzonitrile]	++ (++indicates binding activity greater than 25% and up to 50%)
C=CC(=O)N1CCN(c2ncnc3cc(-c4ccccc4C(C)C)c(Cl)cc23)CC1 [Compound I-99, 1-(4-(6-chloro-7-(2-isopeopylphenyl)quinazolin-4-yl)piperazin-1-yl)prop-2-en-1-one]	+++ (+++indicates binding activity greater than 50% and up to 75%)

Same assay, conditions: compounds 247-342, measured at 30 min

SMILES	Binding %
C=CC(=O)N1CCN(c2nc(NC3CCOC3)nc3cc(-c4c(C)ccc5[nH]ncc45)c(Cl)cc23)CC1 (stereo not shown) [Compound 330, 1-(4-(6-chloro-7-(5-methyl-1H-indazol-4-yl)-2-(tetrahydrofuran-3-ylamino)quinazolin-4-yl)piperazin-1-yl)prop-2-en-1-one]	++ (++indicates binding activity greater than 25% and up to 50%)
C=CC(=O)N1CCN(c2nc(OC3CCCOC3)nc3cc(-c4c(C)ccc5[nH]ncc45)c(Cl)cc23)CC1 (stereo not shown) [Compound 316, 1-(4-(6-chloro-7-(5-methyl-1H-indazol-4-yl)-2-(tetrahydro-2H-pyran-3-yloxy)quinazolin-4-yl)piperazin-1-yl)prop-2-en-1-one]	++ (++indicates binding activity greater than 25% and up to 50%)
C=CC(=O)N1CCN(c2ncnc3c(F)c(-c4c(C)c(C)cc5cn[nH]c45)c(Cl)cc23)CC1 [Compound I-255, 1-(4-(6-chloro-7-(5,6-dimethyl-1H-indazol-7-yl)-8-fluoroquinaolin-4-yl)piperazin-1-yl)prop-2-en-1-one]	+++ (+++indicates binding activity greater than 50% and up to 75%)
C=CC(=O)N1CCN(c2nc(NC)nc3cc(-c4c(C)ccc5[nH]ncc45)c(Cl)cc23)CC1 [Compound 312, 1-(4-(6-chloro-7-(5-methyl-1H-indazol-4-yl)-2-(methylamino)quinazolin-4-yl)piperazin-1-yl)prop-2-en-1-one]	++++ (++++indicates binding activity greater than 75%)
N#C/C(=C\c1cncs1)C(=O)N1CCN(c2ncnc3c(F)c(-c4c(O)cccc4F)c(Cl)cc23)CC1 [Compound I-283, (E)-2-(4-(6-chloro-8-fluoro-7-(2-fluoro-6-hydroxyphenyl)quinazolin-4-yl)piperazine-1-carbonyl)-3-(thiazol-5-yl)acrylonitrile]	++ (++indicates binding activity greater than 25% and up to 50%)

Same assay, conditions: determined at 2 hrs

SMILES	Binding %
C=CC(=O)N1CC(N2CCN(C(=O)CNc3cc(C4CC4)c(Cl)cc3C#N)CC2)C1 [II-71, 2-((2-(4-(1-Acryloylazetidin-3-yl)piperazin-1-yl)-2-oxoethyl)amino)-5-chloro-4-cyclopropylbenzonitrile]	+ (+indicates binding activity from 5% to 20%)
C=CC(=O)N1CC(N2CCN(C(=O)CNc3cc(C4CC4)c(Cl)cc3O)CC2CO)C1 (stereo not shown) [II-54, 1-(3-(4-(2-(4-Chloro-5-cyclopropyl-2-hydroxyphenylamino)acetyl)-2-(hydroxymethyl)piperazin-1-yl)azetidin-1-yl)prop-2-en-1-one]	++ (++indicates binding activity greater than 20%)
C=CC(=O)N1CC(N2CCN(C(=O)C(C)Nc3cc(C4CCC4)c(Cl)cc3O)CC2)C1 (stereo not shown) [II-59, 1-(3-(4-(2-(4-chloro-5-cyclobutyl-2-hydroxyphenylamino)propanoyl)piperazin-1-yl)azetidin-1-yl)prop-2-en-1-one]	++ (++indicates binding activity greater than 20%)

Same assay, conditions: determined at 24 hrs

SMILES	Binding %
C=CC(=O)N1CC(N2CCN(C(=O)CNc3cc(OC)c(Cl)cc3Cl)CC2)C1 [II-5, 1-(3-(4-(2-(2,4-dichloro-5-methoxyphenyl-amino)acetyl)-piperazin-1-yl)azetidin-1-yl)prop-2-en-1-one]	+ (+indicates binding activity from 5% to 15%)
C=CC(=O)N1CC(N2CCN(C(=O)Cn3ccc4cc(Cl)c(Cl)cc43)CC2)C1 [II-30, 1-(3-(4-(2-(5,6-dichloro-1H-indol-1-yl)acetyl)piperazin-1-yl)azetidin-1-yl)prop-2-en-1-one]	+ (+indicates binding activity from 5% to 15%)
